Measurements from the supplement of paper PMC10307832.

Key:
Test in all cases: relative viability (nuclei count vs DMSO), 5 days (fraction); higher = more cells survive
[1] = compound: CN1CCC(CNc2ccc3ncc(-c4cccc(OC(F)(F)F)c4)n3n2)CC1 [SGI-1776] + Nc1ncn([C@H]2C[C@H](O)[C@@H](CO)O2)c(=O)n1 [Decitabine] (partner 2 µM)
In short: (§1)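 Lung cancer cell lines in 1536-well plates got either a single drug or a fixed anchor-drug dose together with five library-drug doses (not always all listed) in √10 steps, by pin tool, on the day after seeding. Nuclei were counted after 5 days, and relative viability is the treated-to-vehicle ratio of nuclei counts. Values are medians of duplicate plates.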

[2] = compound: Nc1ccccc1NC(=O)c1ccc(CNC(=O)OCc2cccnc2)cc1 [Entinostat] + CCNC(=O)c1noc(-c2cc(C(C)C)c(O)cc2O)c1-c1ccc(CN2CCOCC2)cc1 [Luminespib] (partner 0.01 µM)
In short: as §1

[3] = compound: C1COCCN1C2=NC(=NC3=C2OC4=C3C=CC=N4)C5=CC(=CC=C5)NC(=O)C6=CN=C(C=C6)N + CC(C)C[C@H](NC(=O)[C@H](Cc1ccccc1)NC(=O)c1cnccn1)B(O)O [Bortezomib] (partner 0.002 µM)
In short: as §1

[4] = compound: C1COCCN1C2=NC(=NC3=C2OC4=C3C=CC=N4)C5=CC(=CC=C5)NC(=O)C6=CN=C(C=C6)N + C[C@@H](Oc1cc(-c2cnn(C3CCNCC3)c2)cnc1N)c1c(Cl)ccc(F)c1Cl [Crizotinib] (partner 1 µM)
In short: as §1

Row | Cell Line | relative viability ([1]; first compound 0.08 µM) | relative viability ([1]; first compound 0.8 µM) | relative viability ([1]; first compound 2.53 µM) | relative viability ([1]; first compound 8 µM) | relative viability ([2]; first compound 0.02 µM) | relative viability ([2]; first compound 0.06325 µM) | relative viability ([2]; first compound 0.2 µM) | relative viability ([2]; first compound 0.6325 µM) | relative viability ([2]; first compound 2 µM) | relative viability ([3]; first compound 0.02 µM) | relative viability ([3]; first compound 0.06325 µM) | relative viability ([3]; first compound 0.2 µM) | relative viability ([3]; first compound 0.6325 µM) | relative viability ([3]; first compound 2 µM) | relative viability ([4]; first compound 0.02 µM) | relative viability ([4]; first compound 0.06325 µM) | relative viability ([4]; first compound 0.2 µM) | relative viability ([4]; first compound 0.6325 µM) | relative viability ([4]; first compound 2 µM)
1 | NCI-H3122 | 0.414 | 0.457 | 0.452 | 0.47 | 0.129 | 0.141 | 0.102 | 0.0843 | 0.073 | 0.985 | 1.01 | 1.03 | 1.05 | 0.931 | 0.312 | 0.236 | 0.242 | 0.271 | 0.24
2 | NCI-H2085 | 0.549 | 0.505 | 0.606 | 0.556 | 0.414 | 0.426 | 0.384 | 0.278 | 0.251 | 1.02 | 1.1 | 1.05 | 0.943 | 0.769 | 0.971 | 0.947 | 0.817 | 0.887 | 0.522
3 | PC-14 | 0.238 | 0.264 | 0.168 | 0.124 | 0.135 | 0.256 | 0.151 | 0.143 | 0.114 | 0.877 | 1.04 | 0.835 | 0.822 | 0.375 | 1.01 | 1.07 | 0.865 | 0.784 | 0.396
4 | NCI-H1355 | 0.342 | 0.313 | 0.416 | 0.359 | 0.724 | 0.611 | 0.616 | 0.504 | 0.418 | 1.24 | 1.25 | 1.27 | 1.21 | 1.06 | 0.969 | 1.21 | 1.07 | 1.02 | 0.936
5 | NCI-H1650 | 0.456 | 0.388 | 0.473 | 0.342 | 0.214 | 0.198 | 0.185 | 0.212 | 0.195 | 0.179 | 0.23 | 0.205 | 0.191 | 0.188 | 1 | 1.05 | 0.94 | 1.06 | 0.601
6 | NCI-H727 | 0.875 | 1.01 | 1.01 | 0.613 | 0.326 | 0.413 | 0.364 | 0.328 | 0.459 | 0.748 | 0.834 | 0.806 | 1.12 | 0.536 | 0.908 | 0.962 | 0.739 | 0.725 | 0.505
7 | NCI-H1755 | 0.714 | 0.695 | 0.717 | 0.622 | 0.483 | 0.459 | 0.678 | 0.528 | 0.415 | 0.947 | 1.08 | 0.904 | 0.918 | 0.613 | 0.969 | 0.978 | 0.811 | 0.773 | 0.34
8 | NCI-H1651 | 0.622 | 0.726 | 0.65 | 0.499 | 0.795 | 1.01 | 0.742 | 0.724 | 0.64 | 1.03 | 0.998 | 0.946 | 0.921 | 0.743 | 0.835 | 0.894 | 0.854 | 0.865 | 0.671
